Measurements from ChEMBL document CHEMBL5360588, “LC-MS-Guided Isolation of Cyanogripeptides A-C, Cyclolipopeptides with β-Methyl-Leucine Residues, from an Actinoalloteichus cyanogriseus LHW52806” (J Nat Prod, 2023).
≈ marks a conversion by molar mass, not a printed value.

Columns and labels:
[1] = system: A2780; assay: Antiproliferative activity against human A2780 cells assessed as inhibition of cell growth measured after 72 by Cell titre-glo assay; assay type: functional, cell-based
[2] = system: NB-4; assay: Antiproliferative activity against human NB4 cells assessed as inhibition of cell growth measured after 72 by Cell titre-glo assay; assay type: functional, cell-based
[3] = system: Daudi; assay: Antiproliferative activity against human Daudi cells assessed as inhibition of cell growth measured after 72 by Cell titre-glo assay; assay type: functional, cell-based
[4] = system: PC-3; assay: Antiproliferative activity against human PC-3 cells assessed as inhibition of cell growth measured after 72 by Cell titre-glo assay; assay type: functional, cell-based
[5] = system: PC-9; assay: Antiproliferative activity against human PC-9 cells assessed as inhibition of cell growth measured after 72 by Cell titre-glo assay; assay type: functional, cell-based
[6] = system: Raji; assay: Antiproliferative activity against human Raji cells assessed as inhibition of cell growth measured after 72 by Cell titre-glo assay; assay type: functional, cell-based
[7] = system: U-937; assay: Antiproliferative activity against human U-937 cells assessed as inhibition of cell growth measured after 72 by Cell titre-glo assay; assay type: functional, cell-based
[8] = system: HT-29; assay: Antiproliferative activity against human HT-29 cells assessed as inhibition of cell growth measured after 72 by Cell titre-glo assay; assay type: functional, cell-based
[9] = system: Mycolicibacterium smegmatis; assay: Antibacterial activity against Mycolicibacterium smegmatis ATCC607 assessed as inhibition of bacterial growth measured after 3 days by broth microdilution assay; assay type: functional; conditions: ATCC607, 72 h, time 3 day
[10] = system: Helicobacter pylori; assay: Antibacterial activity against Helicobacter pylori G27 assessed as inhibition of bacterial growth measured after 3 days by broth microdilution assay; assay type: functional; conditions: G27, 72 h, time 3 day
[11] = system: Helicobacter pylori; assay: Antibacterial activity against Helicobacter pylori 26695 assessed as inhibition of bacterial growth measured after 3 days by broth microdilution assay; assay type: functional; conditions: Helicobacter pylori, 26695, 72 h; time 3 day

| IC50 [1] [µM] | IC50 [3] [µM] | IC50 [4] [µM] | IC50 [5] [µM] | IC50 [6] [µM] | IC50 [7] [µM] | IC50 [8] [µM] | MIC [9] [µg/mL] | MIC [10] [µg/mL] | MIC [11] [µg/mL] | Structure (SMILES) | IC50 [2] [µM] |
| --- | --- | --- | --- | --- | --- | --- | --- | --- | --- | --- | --- |
| > 20 | > 20 | > 20 | > 20 | > 20 | > 20 | > 20 | – | – | – | CC(C)C[C@H](NC(=O)Cc1ccccc1)C(=O)N[C@H](CCCNC(=N)N)C(=O)N[C@@H]1C(=O)N[C@@H]([C@@H](C)C(C)C)C(=O)NCC(=O)N[C@@H]([C@H](C)C(C)C)C(=O)O[C@@H]1C | > 20 |
| > 20 | > 20 | > 20 | > 20 | > 20 | > 20 | > 20 | – | – | – | CC(C)CCC(=O)N[C@@H](CC(C)C)C(=O)N[C@H](CCCNC(=N)N)C(=O)N[C@@H]1C(=O)N[C@@H]([C@@H](C)C(C)C)C(=O)NCC(=O)N[C@@H]([C@H](C)C(C)C)C(=O)O[C@@H]1C | > 20 |
| > 20 | > 20 | > 20 | > 20 | > 20 | > 20 | > 20 | 32 (≈ 39.6 µM) | 32 (≈ 39.6 µM) | 32 (≈ 39.6 µM) | CC(C)CCCCC(=O)N[C@@H](CC(C)C)C(=O)N[C@H](CCCNC(=N)N)C(=O)N[C@@H]1C(=O)N[C@@H]([C@@H](C)C(C)C)C(=O)NCC(=O)N[C@@H]([C@H](C)C(C)C)C(=O)O[C@@H]1C | > 20 |
